In ChEMBL document CHEMBL1275486, “Kinetic characterization of VIM-7, a divergent member of the VIM metallo-beta-lactamase family” (Antimicrob Agents Chemother, 2008):

Assays:
Escherichia coli [1] = assay: Activity of Escherichia coli beta-lactamase VIM-1 by spectrophotometry
Escherichia coli [2] = assay: Ratio of Kcat to Km for Escherichia coli beta-lactamase VIM-1 by spectrophotometry

Compound	Km (Escherichia coli [1]) [µM]	kcat (Escherichia coli [1]) [s⁻¹]	kcat/Km (Escherichia coli [2]) [M⁻¹ s⁻¹]
CO/N=C(\C(=O)N[C@@H]1C(=O)N2C(C(=O)[O-])=C(C[N+]3(C)CCCC3)CS[C@H]12)c1csc(N)n1	150	550	3.7e+06
CO[C@@]1(NC(=O)Cc2cccs2)C(=O)N2C(C(=O)O)=C(COC(N)=O)CS[C@@H]21	130	26	200000
CCN1CCN(C(=O)N[C@@H](C(=O)N[C@@H]2C(=O)N3[C@@H]2SC(C)(C)[C@@H]3C(=O)O)c2ccccc2)C(=O)C1=O	3500	1900	540000
CO/N=C(\C(=O)N[C@@H]1C(=O)N2C(C(=O)O)=C(COC(N)=O)CS[C@H]12)c1ccco1	42	325	7.7e+06
C[C@@H](O)[C@H]1C(=O)N2C(C(=O)O)=C(S[C@@H]3CN[C@H](C(=O)N(C)C)C3)[C@H](C)[C@H]12	50	13	260000
